These results are taken from PMC6271077, “Synthesis, Anticancer and Antibacterial Activity of Salinomycin N-Benzyl Amides” (Molecules, 2014).

Assay [1] has as its system HL-60/vinc. The experiment in a line: Antiproliferative MTT assay, HL-60/vinc. The format is cell-based, human. In short, it runs like this: (§1)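 Leukemia cells seeded at 10^4 per well and exposed 24 h later to four concentrations (100–0.1 µg/mL) for 72 h; HL-60/vinc cultured with doxorubicin. MTT added 4 h, formazan lysed 24 h, absorbance 570 nm; IC50 from triplicates, ≥3 independent experiments.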

The test system of assay [2] is HL-60. The experiment in a line: Antiproliferative MTT assay, HL-60. Format: cell-based, human. In short, it runs like this:
as §1

Assay [3] concerns LoVo. The experiment in a line: Antiproliferative SRB assay, LoVo. The format is cell-based, human.
The test system of assay [4] is BALB/3T3. The assay is described as follows: Antiproliferative SRB assay, normal fibroblasts BALB/3T3. The format is cell-based. To be noted: Mus musculus, BALB/3T3, normal murine embryonic fibroblasts, 72 h, mean ± SD, read-out: IC50 BALB/3T3 (normal cells). The source says:
Four human cancer cell lines and one normal cell line were used to evaluate anticancer activity of SAL and its N-benzyl amides: human acute promyelocytic leukemia (HL-60) and its vincristine resistant subline (HL-60/vinc), human colon adenocarcinoma cell lines sensitive (LoVo) and resistant to doxorubicin (LoVo/dx) as well as also normal murine embryonic fibroblast cell line (BALB/3T3). The BALB/3T3 cell line was purchased from the American Type Culture Collection (ATCC Rockville, MD, USA), HL-60 cell line from European Type Culture Collection by courtesy of Professor Spik and Dr Mazurier (Laboratory of Biological Chemistry USTL, Lille, France) and HL-60/vinc, LoVo and LoVo/dx by courtesy of Prof. E. Borowski (Technical University of Gdańsk, Gdańsk, Poland). All the cell lines are maintained in the Institute of Immunology and Experimental Therapy (IIET), Wrocław, Poland. […]
After 72 h of incubation with tested compounds the cells were fixed in situ by gently adding of 50 µL per well of cold 50% trichloroacetic acid TCA (Avantor Performance Materials, City, Poland) and were incubated at 4 °C for 1 h. […] Absorbance of each solution was read at Synergy H4 photometer (BioTek Instruments, Winooski, VT, USA) at 540 nm wavelength. […]

For assay [5], the system named is LoVo/dx. The assay is described as follows: Antiproliferative SRB assay, LoVo/dx. The format is cell-based, human.

For the molecule `COc1cccc2c1C(=O)c1c(O)c3c(c(O)c1C2=O)C[C@@](O)(C(=O)CO)C[C@@H]3O[C@H]1C[C@H](N)[C@H](O)[C@H](C)O1` [doxorubicin, reference compound], the IC50 in assay [1] (Homo sapiens, HL60/vinc, vincristine-resistant subline, 72 h, MTT, mean ± SD, NA: not active in concentrations used (up to 100 µg/mL), read-out: IC50 HL-60/vinc) was found to be 880 ± 260 nM; in assay [2] (Homo sapiens, HL-60, 72 h, MTT, mean ± SD, NA: not active in concentrations used (up to 100 µg/mL), read-out: IC50 HL-60), 40 ± 40 nM; in assay [3] (Homo sapiens, LoVo, 72 h, SRB, mean ± SD, read-out: IC50 LoVo), 150 ± 60 nM; in assay [4] it was 180 ± 70 nM; in assay [5] (Homo sapiens, LoVo/DX, doxorubicin resistant subline, 72 h, SRB, mean ± SD, read-out: IC50 LoVo/dx) it was 5460 ± 1560 nM. For the same molecule, the “IR HL-60/vinc” value in assay [1] (IR = IC50 HL-60/vinc / IC50 HL-60) turned out to be 22.00. Further, the “SI HL-60/vinc” value in assay [1] (SI = IC50 BALB/3T3 / IC50 HL-60/vinc) was determined as 0.20. Also, the “SI HL-60” value in assay [2] (SI = IC50 BALB/3T3 / IC50 HL-60) is on record as 4.50. Also, the “SI LoVo” value in assay [3] (SI = IC50 BALB/3T3 / IC50 LoVo) turned out to be 1.20. In assay [5] (IR = IC50 LoVo/dx / IC50 LoVo), the “IR LoVo/DX” value amounted to 36.40. Also, the “SI LoVo/DX” value in assay [5] (SI = IC50 BALB/3T3 / IC50 LoVo/dx) worked out at 0.03.
